Data from ChEMBL document CHEMBL1909046, “DrugMatrix in vitro pharmacology data”.

Columns and labels:
[1] = DRUGMATRIX: Interleukin IL-1 radioligand binding (ligand: [125I] interleukin 1beta); format: cell membranes, Membrane; details: nih3t3; Not Active = under 50% inhibition at 10 µM
[2] = DRUGMATRIX: Leukotriene, BLT (LTB4) radioligand binding (ligand: [3H]LTB4); format: cell membranes, Membrane; details: u-937; Not Active = under 50% inhibition at 10 µM
[3] = DRUGMATRIX: ATPase, Na+/K+ enzyme inhibition (substrate: ATP); format: tissue-based, Sus scrofa, Heart; details: Not Active = under 50% inhibition at 10 µM
[4] = DRUGMATRIX: Serotonin (5-Hydroxytryptamine) 5-HT3 radioligand binding (ligand: [3H] GR-65630); format: cell membranes, Membrane; details: hek293; Not Active = under 50% inhibition at 10 µM
[5] = DRUGMATRIX: GABAA, Muscimol, Central radioligand binding (ligand: [3H] Muscimol); format: cell membranes, Rattus norvegicus, Wistar, Brain, Membrane; details: Not Active = under 50% inhibition at 10 µM
[6] = DRUGMATRIX: Glutamate, Kainate radioligand binding (ligand: [3H] Kainic acid); format: cell membranes, Rattus norvegicus, Wistar, Brain, Membrane; details: Not Active = under 50% inhibition at 10 µM
Cytochrome P450 2D6 = Cytochrome P450 2D6 (Homo sapiens, UniProt P10635); details: bti-tn-5b1-4; also: in other assays of this panel Not Active means under 50% inhibition at 10 µM
Melanocortin receptor 5 = Melanocortin receptor 5 (Homo sapiens, UniProt P33032); format: cell membranes, HEK293, Membrane; details: hek293; also: in other assays of this panel Not Active means under 50% inhibition at 10 µM
[7] = target: T1, Muscarinic acetylcholine receptor M5 (Homo sapiens, UniProt P08912); format: cell membranes, Membrane; details: cho-k1; also: in other assays of this panel Not Active means under 50% inhibition at 10 µM
T1 sequence (P08912 whole entry): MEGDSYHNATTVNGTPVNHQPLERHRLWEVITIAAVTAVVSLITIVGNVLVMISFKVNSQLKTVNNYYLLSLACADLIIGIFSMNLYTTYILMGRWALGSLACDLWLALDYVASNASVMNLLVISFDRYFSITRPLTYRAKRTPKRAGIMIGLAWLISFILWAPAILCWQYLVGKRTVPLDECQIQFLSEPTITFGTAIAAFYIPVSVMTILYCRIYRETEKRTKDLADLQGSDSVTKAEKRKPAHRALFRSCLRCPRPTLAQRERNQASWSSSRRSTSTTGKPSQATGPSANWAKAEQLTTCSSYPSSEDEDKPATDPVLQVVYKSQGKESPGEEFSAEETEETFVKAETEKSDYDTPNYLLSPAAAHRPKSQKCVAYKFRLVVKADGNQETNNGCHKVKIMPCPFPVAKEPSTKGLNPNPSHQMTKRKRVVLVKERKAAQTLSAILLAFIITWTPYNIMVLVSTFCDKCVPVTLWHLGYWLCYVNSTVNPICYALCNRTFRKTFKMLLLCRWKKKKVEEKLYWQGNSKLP

Sequence of Cytochrome P450 2D6 (P10635 whole entry): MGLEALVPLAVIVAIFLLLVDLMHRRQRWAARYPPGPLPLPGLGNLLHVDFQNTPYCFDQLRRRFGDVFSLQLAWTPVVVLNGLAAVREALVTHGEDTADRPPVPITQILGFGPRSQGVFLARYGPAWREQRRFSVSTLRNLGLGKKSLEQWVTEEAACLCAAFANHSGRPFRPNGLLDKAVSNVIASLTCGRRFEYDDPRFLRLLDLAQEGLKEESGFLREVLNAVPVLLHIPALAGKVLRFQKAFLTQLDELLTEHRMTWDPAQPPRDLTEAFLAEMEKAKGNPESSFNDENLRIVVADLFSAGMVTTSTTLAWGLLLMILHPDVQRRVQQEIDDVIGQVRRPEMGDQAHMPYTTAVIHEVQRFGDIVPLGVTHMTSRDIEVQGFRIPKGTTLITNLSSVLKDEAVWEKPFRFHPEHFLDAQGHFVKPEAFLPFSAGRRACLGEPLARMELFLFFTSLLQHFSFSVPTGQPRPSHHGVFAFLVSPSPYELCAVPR
Sequence of Melanocortin receptor 5 (P33032 whole entry): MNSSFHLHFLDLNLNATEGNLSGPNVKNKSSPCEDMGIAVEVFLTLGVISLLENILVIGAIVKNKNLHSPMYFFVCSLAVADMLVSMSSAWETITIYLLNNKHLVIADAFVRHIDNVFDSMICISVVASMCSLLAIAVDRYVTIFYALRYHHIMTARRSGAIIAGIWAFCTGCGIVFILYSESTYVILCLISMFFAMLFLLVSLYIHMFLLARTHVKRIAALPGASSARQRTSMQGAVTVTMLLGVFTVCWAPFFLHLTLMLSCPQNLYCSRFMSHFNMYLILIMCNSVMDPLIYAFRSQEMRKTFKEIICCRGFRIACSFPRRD

CN[C@@H]1[C@H](O)[C@H](NC)[C@H]2O[C@@]3(O)C(=O)C[C@@H](C)O[C@H]3O[C@@H]2[C@H]1O [SPECTINOMYCIN]
Not Active: IC50 [1] | Ki [1] | IC50 [2] | Ki [2] | IC50 [3] | Ki [3] | IC50 [4] | Ki [4] | IC50 [5] | Ki [5] | IC50 [6] | Ki [6] | IC50 (Cytochrome P450 2D6) | Ki (Cytochrome P450 2D6) | IC50 (Melanocortin receptor 5) | IC50 [7]

Nc1ccc(S(=O)(=O)Nc2ncccn2)cc1 [SULFADIAZINE]
Not Active: IC50 [1] | Ki [1] | IC50 [2] | Ki [2] | IC50 [3] | Ki [3] | IC50 [4] | Ki [4] | IC50 [5] | Ki [5] | IC50 [6] | Ki [6] | IC50 (Cytochrome P450 2D6) | Ki (Cytochrome P450 2D6) | IC50 (Melanocortin receptor 5) | IC50 [7]

COc1ncnc(NS(=O)(=O)c2ccc(N)cc2)c1OC [SULFADOXINE]
Not Active: IC50 [1] | Ki [1] | IC50 [2] | Ki [2] | IC50 [3] | Ki [3] | IC50 [4] | Ki [4] | IC50 [5] | Ki [5] | IC50 [6] | Ki [6] | IC50 (Cytochrome P450 2D6) | Ki (Cytochrome P450 2D6) | IC50 (Melanocortin receptor 5) | IC50 [7]

Nc1ccc(S(=O)(=O)Nc2nccs2)cc1 [SULFATHIAZOLE]
Not Active: IC50 [1] | Ki [1] | IC50 [2] | Ki [2] | IC50 [3] | Ki [3] | IC50 [4] | Ki [4] | IC50 [5] | Ki [5] | IC50 [6] | Ki [6] | IC50 (Cytochrome P450 2D6) | Ki (Cytochrome P450 2D6) | IC50 (Melanocortin receptor 5) | IC50 [7]

C[C@]12CC[C@H]3[C@@H](CCC4=CC(=O)CC[C@@]43C)[C@@H]1CC[C@@H]2O [TESTOSTERONE]
Not Active: IC50 [1] | Ki [1] | IC50 [2] | Ki [2] | IC50 [3] | Ki [3] | IC50 [4] | Ki [4] | IC50 [5] | Ki [5] | IC50 [6] | Ki [6] | IC50 (Cytochrome P450 2D6) | Ki (Cytochrome P450 2D6) | IC50 (Melanocortin receptor 5) | IC50 [7]

CC(C)(C)NC[C@H](O)COc1nsnc1N1CCOCC1 [TIMOLOL]
Not Active: IC50 [1] | Ki [1] | IC50 [2] | Ki [2] | IC50 [3] | Ki [3] | IC50 [4] | Ki [4] | IC50 [5] | Ki [5] | IC50 [6] | Ki [6] | IC50 (Cytochrome P450 2D6) | Ki (Cytochrome P450 2D6) | IC50 (Melanocortin receptor 5) | IC50 [7]

C[C@@H]1C[C@H]2[C@@H]3CCC4=CC(=O)C=C[C@]4(C)C3=CC[C@]2(C)[C@H]1C(=O)CN1CCN(c2cc(N3CCCC3)nc(N3CCCC3)n2)CC1 [TIRILAZAD]
Not Active: IC50 [1] | Ki [1] | IC50 [2] | Ki [2] | IC50 [3] | Ki [3] | IC50 [4] | Ki [4] | IC50 [5] | Ki [5] | IC50 [6] | Ki [6] | IC50 (Cytochrome P450 2D6) | Ki (Cytochrome P450 2D6) | IC50 (Melanocortin receptor 5) | IC50 [7]

NC[C@H]1O[C@H](O[C@H]2[C@H](O)[C@@H](O[C@H]3O[C@H](CO)[C@@H](O)[C@H](N)[C@H]3O)[C@H](N)C[C@@H]2N)[C@H](N)C[C@@H]1O [TOBRAMYCIN]
Not Active: IC50 [1] | Ki [1] | IC50 [2] | Ki [2] | IC50 [3] | Ki [3] | IC50 [4] | Ki [4] | IC50 [5] | Ki [5] | IC50 [6] | Ki [6] | IC50 (Cytochrome P450 2D6) | Ki (Cytochrome P450 2D6) | IC50 (Melanocortin receptor 5) | IC50 [7]

O=C(O)C(Cl)(Cl)Cl [TRICHLOROACETIC ACID]
Not Active: IC50 [1] | Ki [1] | IC50 [2] | Ki [2] | IC50 [3] | Ki [3] | IC50 [4] | Ki [4] | IC50 [5] | Ki [5] | IC50 [6] | Ki [6] | IC50 (Cytochrome P450 2D6) | Ki (Cytochrome P450 2D6) | IC50 (Melanocortin receptor 5) | IC50 [7]

CC(=O)O[C@H]1C[C@@H]2CC[C@@H]3[C@H](CC[C@@]4(C)[C@H]3C[C@H]([N+]3(C)CCCCC3)[C@@H]4OC(C)=O)[C@@]2(C)C[C@@H]1N1CCCCC1.[Br-] [VECURONIUM BROMIDE]
Not Active: IC50 [1] | Ki [1] | IC50 [2] | Ki [2] | IC50 [3] | Ki [3] | IC50 [4] | Ki [4] | IC50 [5] | Ki [5] | IC50 [6] | Ki [6] | IC50 (Cytochrome P450 2D6) | Ki (Cytochrome P450 2D6) | IC50 (Melanocortin receptor 5) | IC50 [7]

COc1cc(C(=O)NS(=O)(=O)c2ccccc2C)ccc1Cc1cn(C)c2ccc(NC(=O)OC3CCCC3)cc12 [ZAFIRLUKAST]
Not Active: IC50 [1] | Ki [1] | IC50 [2] | Ki [2] | IC50 [3] | Ki [3] | IC50 [4] | Ki [4] | IC50 [5] | Ki [5] | IC50 [6] | Ki [6] | IC50 (Cytochrome P450 2D6) | Ki (Cytochrome P450 2D6) | IC50 (Melanocortin receptor 5) | IC50 [7]

Cc1cn([C@H]2C[C@H](N=[N+]=[N-])[C@@H](CO)O2)c(=O)[nH]c1=O [ZIDOVUDINE]
Not Active: IC50 [1] | Ki [1] | IC50 [2] | Ki [2] | IC50 [3] | Ki [3] | IC50 [4] | Ki [4] | IC50 [5] | Ki [5] | IC50 [6] | Ki [6] | IC50 (Cytochrome P450 2D6) | Ki (Cytochrome P450 2D6) | IC50 (Melanocortin receptor 5) | IC50 [7]
